How the values were obtained:
[1] = tested on: β-hexosaminidases; settings: literature statement; cited from earlier work
[2] = tested on: GalNAcases; settings: literature statement; cited from earlier work
[3] = target: β-hexosaminidase from human placenta; assay: Inhibition of β-hexosaminidase from human placenta; type: biochemical; settings: for Ki: 1L non-competitive, 1D competitive
[4] = target: T1, coffee bean α-galactosidase (Coffea arabica, UniProt Q42656); assay: biochemical
T1 construct: coffee bean α-galactosidase; from tissue; host or cells: coffee bean
T1 sequence (Q42656 16-378): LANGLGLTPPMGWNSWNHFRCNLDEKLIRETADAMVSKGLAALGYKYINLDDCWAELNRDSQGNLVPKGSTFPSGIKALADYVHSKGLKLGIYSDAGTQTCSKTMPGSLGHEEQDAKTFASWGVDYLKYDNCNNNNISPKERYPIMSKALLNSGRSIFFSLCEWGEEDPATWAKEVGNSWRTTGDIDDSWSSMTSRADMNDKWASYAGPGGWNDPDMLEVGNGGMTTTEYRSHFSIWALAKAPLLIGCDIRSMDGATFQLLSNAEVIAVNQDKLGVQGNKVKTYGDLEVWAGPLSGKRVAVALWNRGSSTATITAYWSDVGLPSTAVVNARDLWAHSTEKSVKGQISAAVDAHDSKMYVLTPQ

[5] = tested on: α-N-acetylgalactosaminidases; assay: Inhibition of α-N-acetylgalactosaminidases (source not given); type: biochemical
[6] = target: β-hexosaminidase from HL-60; assay: Inhibition of β-hexosaminidase from HL-60; type: biochemical
[7] = target: β-hexosaminidase from bovine kidney; assay: Inhibition of β-hexosaminidase from bovine kidney; type: biochemical
[8] = target: α-N-acetylgalactosaminidase (GalNAcase) from Charonia lampas; assay: Inhibition of GalNAcase from Charonia lampas; type: biochemical; settings: competitive inhibition
[9] = target: β-hexosaminidase from Jack bean; assay: Inhibition of β-hexosaminidase from Jack bean; type: biochemical
[10] = target: T2, α-N-acetylgalactosaminidase (GalNAcase) from chicken liver (Gallus gallus, UniProt Q90744); assay: Inhibition of GalNAcase from chicken liver; type: biochemical; settings: competitive inhibition
T2 construct: from tissue; host or cells: chicken liver
T2 sequence (Q90744 1-405): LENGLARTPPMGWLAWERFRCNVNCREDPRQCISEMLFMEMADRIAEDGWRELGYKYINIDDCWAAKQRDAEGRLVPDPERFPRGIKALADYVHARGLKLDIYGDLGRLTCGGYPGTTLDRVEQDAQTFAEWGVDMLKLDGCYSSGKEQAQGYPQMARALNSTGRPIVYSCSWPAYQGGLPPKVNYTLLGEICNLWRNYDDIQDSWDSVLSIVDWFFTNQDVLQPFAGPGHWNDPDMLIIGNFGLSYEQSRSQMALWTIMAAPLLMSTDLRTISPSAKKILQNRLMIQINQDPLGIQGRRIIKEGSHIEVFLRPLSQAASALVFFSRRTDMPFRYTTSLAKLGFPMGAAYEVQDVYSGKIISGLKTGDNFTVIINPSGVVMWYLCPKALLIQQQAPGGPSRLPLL

IC50 [3] [µM] | IC50 [4] [µM] | IC50 [6] [µM] | IC50 [7] [µM] | Ki [8] [µM] | IC50 [9] [µM] | Ki [10] [µM] | SMILES | inhibition of β-hexosaminidases [1] | inhibition of GalNAcases [2] | Ki [3] [µM] | inhibition of coffee bean α-galactosidase [4] | inhibition of α-N-acetylgalactosaminidases [5]
 |  |  |  |  |  |  | CC(=O)N[C@H]1c2nc(CC(=O)O)cn2[C@H](CO)[C@H](O)[C@@H]1O [nagstatin 4, nagstatin] | potent inhibitor | does not inhibit |  |  | 
 |  |  |  |  |  |  | CC(=O)NC1CNC(CO)C(O)C1O [L-DGJNAc 1L] |  |  | 1100 | no inhibition | no inhibition
8.3 | 64 | 2.2 | 4.2 | 0.136 | 1.8 | 0.081 | CC(=O)N[C@H]1CN[C@H](CO)[C@H](O)[C@@H]1O [DGJNAc 1D, 2-acetamido-1,2-dideoxy-D-galacto-nojirimycin] |  |  | 2.2 |  | 

From US20130040990A1, “SYNTHESIS OF DGJNAc FROM D-GLUCURONOLACTONE AND USE TO INHIBIT ALPHA-N-ACETYLGALACTOSAMINIDASES” (The Chancellor, Masters and Scholars of the University of …, priority 2010, published 2013)
